Measured values published in patent publication US5696108A, “Protein kinase C inhibitors” (Eli Lilly and Company, priority 1996, dated 1997).
“Also recorded” adds a separate entry of the source.

Tests used:
[1] = from CN1C(=O)C(c2c[nH]c3ccccc23)=C(c2cn(CCCOC(CCI)CO[Si](c3ccccc3)(c3ccccc3)C(C)(C)C)c3ccccc23)C1=O; amine bond; cesium carbonate; DMF; 5.85 mM; 83.0 h
[2] = test system: protein kinase C; conditions: literature; cited from earlier work
[3] = molecular target: T1, cAMP-dependent kinase catalytic subunit (Bos taurus, UniProt P00517); test: cAMP-Dependent protein Kinase Catalytic Subunit Assay; assay type: biochemical, bovine; conditions: Table 1
T1 construct: purchased Sigma, St. Louis, Mo; host or cells: bovine heart
Description: cAMP-Dependent protein Kinase Catalytic Subunit Assay (PEA) The Assay components are in a total volume of 250 μL: 20 mM HEPES (Sigma, St. Louis, Mo.) buffer pH 7.5, 200 μg/mL histone type HL (Worthington), 10 mM magnesium chloride (Sigma, St. […] The reaction is initiated by addition of bovine heart cAMP-dependent kinase catalytic subunit (Sigma, St. Louis, Mo.), incubated to 30° C. for 10 minutes and stopped by adding 0.5 mL ice cold Trichloroacetic acid (Amresco) followed by 100 μL of 1 mg/mL bovine serum albumin (Sigma). The precipitate is collected by vacuum filtrated on glass fiber filters employing a TOMTEC™ and quantified by counting in a beta scintillation counter. This assay is done identical to the protein kinase C (PKC) enzyme assay except that no phospholipids or diacylglycerol are employed in the assay and the histone substrate is specific for the cAMP-dependent catalytic subunit enzyme.

[4] = molecular target: calcium calmodulin dependent protein kinase; test: Calcium Calmodulin Dependent Protein Kinase Assay (CAM); assay type: biochemical, rat; conditions: Table 1
Description: Calcium Calmodulin Dependent Protein Kinase Assay (CAM)
The reaction is initiated by the addition of calcium calmodulin dependent protein kinase (isolated from rat brain homogenate), incubated at room temperature for 10 minutes and stopped by adding 0.5 mL ice cold trichloroacetic acid (Amresco) followed by 100 μL of 1 mg/mL bovine serum albumin (Sigma, St. Louis, Mo.). The precipitate is collected by vacuum filtration on glass fiber filters and quantified by counting in a beta scintillation counter.
25 μL calmodulin (250 μg/mL)
10 μL DMSO or DMSO/inhibitor

[5] = molecular target: T2, casein protein kinase II (Rattus norvegicus, UniProt P19139); test: Casein Protein Kinase II Assay (CK-II); assay type: biochemical; conditions: Table 1
T2 construct: isolated from rat brain homogenate; from tissue; host or cells: rat brain homogenate
Description: Casein Protein Kinase II Assay (CK-II)
The Casein Protein Kinase II Assay is described in Neurochem. […] The assay components are in a total volume of 250 μL: 20 mM Tris-HCl, pH 7.5, 5 mM sodium fluoride, 50 mg/mL Casein (Sigma, St. Louis, Mo.), 10 mM magnesium chloride (Sigma, St. Louis, Mo.), 10 μL DMSO or DMSO/inhibitor and 30 μm (gamma-32P) ATP (DuPont). Initiation of the reaction is performed by addition of casein protein kinase II (isolated from rat brain homogenate), incubated at room temperature for 10 minutes and stopped by the addition of 0.5 mL ice cold Trichloroacetic acid (Amresco) followed by 100 μL of 1 mg/mL bovine serum albumin (Sigma, St. Louis, Mo.). The precipitate is collected by vacuum filtration on glass fiber filters and quantified by counting in a beta scintillation counter.
Assay components in order of addition
10 μL or DMSO or DMSO/inhibitor
25 μL of AT32P in 300 μM magnesium chloride
40 μL of enzyme (undiluted)
Buffer prepared as follows:
(Final volume=3.5 mL: amount of 20 assays)

[6] = molecular target: PKC gamma (Homo sapiens, UniProt P05129); test: PKC Enzyme Assay, gamma isozyme; assay type: biochemical; conditions: Table 2; read-out: Isozymes ED50 γ
Description: (§1) PKC enzymes=alpha, beta I, beta II, gamma, delta, epsilon, eta and zeta.
(§2) Assay components in a total volume of 250 μL are as follows:
(§3) For all the enzymes either histone type HL (Worthington) or myelin basic protein is used as substrate. The assay is started by addition of protein kinase C enzyme incubated at 30° C. for 10 minutes and stopped by adding 0.5 mL of cold trichloroacetic acid (Amresco) followed by 100 μL of 1 mg/mL bovine serum albumin (Sigma, St. Louis, Mo.). The precipitate is collected by vacuum filtration on glass fiber filters employing a TOMTEC™ filtration system and quantified by counting in a beta scintillation counter.

[7] = molecular target: PKC eta (Homo sapiens, UniProt P24723); test: PKC Enzyme Assay, eta isozyme; assay type: biochemical; conditions: Table 2; read-out: Isozymes ED50 eta
Description: as §1, §2, §3

[8] = molecular target: PKC-α (Homo sapiens, UniProt P17252); test: PKC Enzyme Assay, alpha isozyme; assay type: biochemical; conditions: Table 1
Description: as §1, §2, §3

[9] = molecular target: PKC-β1 (Homo sapiens, UniProt P05771); test: PKC Enzyme Assay, beta-1 isozyme; assay type: biochemical; conditions: Table 1
Description: as §1, §2, §3

[10] = molecular target: PKC-β2 (Homo sapiens, UniProt P05771); test: PKC Enzyme Assay, beta-2 isozyme; assay type: biochemical; conditions: Table 1
Description: as §1, §2, §3

[11] = molecular target: T3, src (Homo sapiens, UniProt P12931); test: Protein Tyrosine Kinase Assay (src); assay type: biochemical; conditions: Table 1
T3 construct: purchased Onogene Science, Inc. PK02 and PK03
Description: Protein Tyrosine Kinase Assay (src)
The Assay components are the following:
4 μL DMSO or DMSO/inhibitor

T2 sequence (P19139 whole entry): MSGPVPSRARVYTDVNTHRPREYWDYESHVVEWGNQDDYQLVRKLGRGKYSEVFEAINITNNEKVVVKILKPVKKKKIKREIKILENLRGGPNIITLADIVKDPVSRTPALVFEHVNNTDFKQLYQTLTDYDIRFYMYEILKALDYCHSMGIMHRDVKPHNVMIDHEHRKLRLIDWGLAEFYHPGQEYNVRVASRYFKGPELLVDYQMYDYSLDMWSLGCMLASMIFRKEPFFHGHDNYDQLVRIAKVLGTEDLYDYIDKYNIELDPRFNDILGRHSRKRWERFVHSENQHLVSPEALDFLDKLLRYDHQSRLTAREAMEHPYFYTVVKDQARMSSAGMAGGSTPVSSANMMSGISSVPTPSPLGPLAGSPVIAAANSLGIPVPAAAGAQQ
T2 sequence (P67874 2-215 partner limits assumed): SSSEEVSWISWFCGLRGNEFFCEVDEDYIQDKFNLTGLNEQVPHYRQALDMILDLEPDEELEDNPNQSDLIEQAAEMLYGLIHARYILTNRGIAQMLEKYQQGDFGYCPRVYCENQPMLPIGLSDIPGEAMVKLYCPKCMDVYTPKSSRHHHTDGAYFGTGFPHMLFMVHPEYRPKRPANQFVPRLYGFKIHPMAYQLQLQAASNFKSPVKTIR
T3 sequence (P12931 whole entry, species assumed): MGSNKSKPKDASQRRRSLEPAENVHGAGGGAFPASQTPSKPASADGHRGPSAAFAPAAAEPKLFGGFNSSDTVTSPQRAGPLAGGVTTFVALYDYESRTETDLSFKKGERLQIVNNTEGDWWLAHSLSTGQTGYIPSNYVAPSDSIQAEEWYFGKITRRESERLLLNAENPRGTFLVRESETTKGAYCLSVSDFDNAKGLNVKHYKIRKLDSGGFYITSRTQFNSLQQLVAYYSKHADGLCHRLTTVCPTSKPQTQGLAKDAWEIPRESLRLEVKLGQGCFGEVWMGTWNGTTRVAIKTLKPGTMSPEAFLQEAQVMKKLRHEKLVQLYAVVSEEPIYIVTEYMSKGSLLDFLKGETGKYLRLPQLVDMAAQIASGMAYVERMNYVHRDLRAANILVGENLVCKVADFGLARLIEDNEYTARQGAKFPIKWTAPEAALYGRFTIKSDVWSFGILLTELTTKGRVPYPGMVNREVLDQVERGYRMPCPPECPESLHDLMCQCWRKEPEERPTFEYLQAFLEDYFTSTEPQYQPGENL
Chain of PKC-β1 (P05771 whole entry): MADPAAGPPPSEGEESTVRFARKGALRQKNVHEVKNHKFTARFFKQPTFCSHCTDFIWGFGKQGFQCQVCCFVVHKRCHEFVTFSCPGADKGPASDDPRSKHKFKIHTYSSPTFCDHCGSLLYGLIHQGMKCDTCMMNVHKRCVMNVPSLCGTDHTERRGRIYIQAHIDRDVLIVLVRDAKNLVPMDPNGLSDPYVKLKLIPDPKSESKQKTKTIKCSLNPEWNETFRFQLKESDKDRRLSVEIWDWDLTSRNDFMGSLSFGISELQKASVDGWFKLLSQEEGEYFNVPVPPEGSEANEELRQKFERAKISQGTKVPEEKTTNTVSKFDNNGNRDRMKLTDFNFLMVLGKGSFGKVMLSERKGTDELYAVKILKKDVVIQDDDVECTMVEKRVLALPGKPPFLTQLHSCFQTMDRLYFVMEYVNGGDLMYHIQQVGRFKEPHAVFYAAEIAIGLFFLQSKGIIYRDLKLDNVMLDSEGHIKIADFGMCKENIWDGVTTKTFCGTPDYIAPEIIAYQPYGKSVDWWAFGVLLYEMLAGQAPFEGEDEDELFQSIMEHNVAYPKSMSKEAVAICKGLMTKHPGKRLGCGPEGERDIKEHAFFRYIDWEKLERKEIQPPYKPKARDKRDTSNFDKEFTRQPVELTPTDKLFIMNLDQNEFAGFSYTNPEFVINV
Chain of PKC-β2 (P05771 1-673 isoform P05771-2): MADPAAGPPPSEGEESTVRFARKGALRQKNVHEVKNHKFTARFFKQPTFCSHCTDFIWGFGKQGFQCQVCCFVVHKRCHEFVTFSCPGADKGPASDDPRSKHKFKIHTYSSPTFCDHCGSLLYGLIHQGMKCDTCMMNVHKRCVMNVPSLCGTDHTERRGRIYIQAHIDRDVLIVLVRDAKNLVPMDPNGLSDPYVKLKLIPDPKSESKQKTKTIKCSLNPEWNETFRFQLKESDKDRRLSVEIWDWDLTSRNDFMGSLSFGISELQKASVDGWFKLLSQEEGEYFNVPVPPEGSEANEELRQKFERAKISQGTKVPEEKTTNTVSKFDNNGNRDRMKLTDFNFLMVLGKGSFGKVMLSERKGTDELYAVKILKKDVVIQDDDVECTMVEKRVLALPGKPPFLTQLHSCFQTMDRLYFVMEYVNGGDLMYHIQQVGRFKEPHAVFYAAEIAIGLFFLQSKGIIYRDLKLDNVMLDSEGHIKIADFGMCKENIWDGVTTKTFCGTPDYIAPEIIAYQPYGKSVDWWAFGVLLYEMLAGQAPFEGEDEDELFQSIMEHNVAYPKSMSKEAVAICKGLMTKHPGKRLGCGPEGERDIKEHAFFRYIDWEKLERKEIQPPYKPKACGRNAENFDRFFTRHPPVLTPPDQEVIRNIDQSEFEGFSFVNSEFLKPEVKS
Chain of PKC eta (P24723 whole entry): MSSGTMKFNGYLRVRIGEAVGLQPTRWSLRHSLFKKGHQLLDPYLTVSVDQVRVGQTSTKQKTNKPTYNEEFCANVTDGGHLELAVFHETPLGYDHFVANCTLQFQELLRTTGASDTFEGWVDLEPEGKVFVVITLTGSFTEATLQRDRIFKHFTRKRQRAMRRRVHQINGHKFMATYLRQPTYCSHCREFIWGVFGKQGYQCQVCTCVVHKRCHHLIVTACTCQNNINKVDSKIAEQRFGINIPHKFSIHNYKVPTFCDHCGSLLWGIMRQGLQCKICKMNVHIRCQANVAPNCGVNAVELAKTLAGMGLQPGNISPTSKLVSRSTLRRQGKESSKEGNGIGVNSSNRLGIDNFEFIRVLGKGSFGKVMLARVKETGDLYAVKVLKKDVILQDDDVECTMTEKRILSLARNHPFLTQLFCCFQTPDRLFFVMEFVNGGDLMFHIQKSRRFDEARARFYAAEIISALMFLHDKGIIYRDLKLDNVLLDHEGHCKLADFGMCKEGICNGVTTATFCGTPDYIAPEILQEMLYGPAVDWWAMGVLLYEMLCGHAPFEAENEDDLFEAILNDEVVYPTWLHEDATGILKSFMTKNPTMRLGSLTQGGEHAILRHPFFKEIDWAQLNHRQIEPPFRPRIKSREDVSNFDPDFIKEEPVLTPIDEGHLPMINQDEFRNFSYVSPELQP

| Compound | IC50 [3] | IC50 [4] | IC50 [5] | IC50 [8] | IC50 [9] | IC50 [10] | IC50 [11] | ring closure, yield of all isomers [1] | isozyme selectivity [2] | IC50 [6] | IC50 [7] |
| --- | --- | --- | --- | --- | --- | --- | --- | --- | --- | --- | --- |
| CN1C(=O)C2=C(C1=O)c1cn(c3ccccc13)CCC(CO[Si](c1ccccc1)(c1ccccc1)C(C)(C)C)OCCCn1cc2c2ccccc21 (stereo not drawn) | – | – | – | – | – | – | – | 97% | – | – | – |
| CN(C)CCCn1cc(C2=C(c3c[nH]c4ccccc34)C(=O)NC2=O)c2ccccc21 [3-[1-(3-dimethylaminopropyl)-indol-3-yl]-4-(1H-indol-3-yl)-1H-pyrrole-2,5-dione] | – | – | – | – | – | – | – | – | slight selectivity for the calcium dependent isozymes; also recorded: no difference, or possibly slight selectivity, for alpha over beta-1 and beta-2 isozymes | – | – |
| CN(C)CC1CCn2cc(c3ccccc32)C2=C(C(=O)NC2=O)c2cn(c3ccccc23)CCO1 (stereo not drawn) [Example 5] | > 100 µM | 4 µM | > 100 µM | – | – | – | – | – | – | 0.23 µM | 0.035 µM |
| CC(=O)OCC1CCCn2cc(c3ccccc32)C2=C(C(=O)NC2=O)c2cn(c3ccccc23)CC1 (stereo not drawn) [Example 38, 3,4-[(N,N'-1,1'-(3"-(acetoxy)methylene)-hexane)-bis-(3,3'-indolyl)]-1H-pyrrole-2,5-dione] | > 100 µM | 9 µM | > 100 µM | 4 µM | 0.2 µM | 0.1 µM | > 100 µM | – | – | – | – |
| O=C1NC(=O)C2=C1c1cn(c3ccccc13)CCCCCCCn1cc2c2ccccc21 [Example 42] | > 100 µM | > 100 µM | > 100 µM | > 100 µM | 0.5 µM | 0.6 µM | > 100 µM | – | – | – | – |
| O=C1NC(=O)C2=C1c1cn(c3ccccc13)CCCC1(CCCn3cc2c2ccccc23)OCCO1 [Example 48] | > 100 µM | > 100 µM | > 100 µM | > 100 µM | 0.5 µM | 0.3 µM | > 100 µM | – | – | – | – |
| O=C1CCCn2cc(c3ccccc32)C2=C(C(=O)NC2=O)c2cn(c3ccccc23)CCC1 [Example 49] | > 100 µM | > 100 µM | > 100 µM | 10 µM | 0.6 µM | 0.4 µM | > 100 µM | – | – | – | – |

Further lines, with some results ahead:

| IC50 [3] | IC50 [4] | IC50 [5] | IC50 [8] | IC50 [9] | IC50 [10] | IC50 [11] | Compound | ring closure, yield of all isomers [1] | isozyme selectivity [2] | IC50 [6] | IC50 [7] |
| --- | --- | --- | --- | --- | --- | --- | --- | --- | --- | --- | --- |
| > 100 µM | > 100 µM | > 100 µM | 31 µM | 0.4 µM | 0.3 µM | > 100 µM | O=C(NCC1CCCn2cc(c3ccccc32)C2=C(C(=O)NC2=O)c2cn(c3ccccc23)CC1)OCc1ccccc1 (stereo not drawn) [Example 39] | – | – | – | – |
| > 100 µM | 39 µM | > 100 µM | 3 µM | 0.1 µM | 0.1 µM | > 125 µM | NC1CCCn2cc(c3ccccc32)C2=C(C(=O)NC2=O)c2cn(c3ccccc23)CCC1 [Example 45] | – | – | – | – |
| > 100 µM | 63 µM | > 100 µM | 3 µM | 0.04 µM | 0.04 µM | > 100 µM | CC(=O)NC1CCCn2cc(c3ccccc32)C2=C(C(=O)NC2=O)c2cn(c3ccccc23)CCC1 [Example 46] | – | – | – | – |
| > 100 µM | 70 µM | > 100 µM | 2 µM | 0.07 µM | 0.06 µM | > 125 µM | O=C1NC(=O)C2=C1c1cn(c3ccccc13)CCCC(NCc1ccccc1)CCCn1cc2c2ccccc21 [Example 47] | – | – | – | – |
